Key:
[1] = Colloidal probe microscopy (CPM): adhesion force (Fad) in liquid HPFP in the presence of surfactants and/or cosolvents; assay type: physicochemical; settings: 298 K
Source text: Preparation and Characterization of the Drug-Modified AFM Cantilever (Colloidal Probe). Single salbutamol crystals were glued onto silicon nitride contact-mode cantilevers (NP-20) with the help of an AFM (Pico LE, Molecular Imaging). In brief, the cantilever was first positioned above a tiny drop of epoxy (Epotek 377). The AFM cantilever was then slowly approached toward the epoxy. A tiny amount of it was then carefully transferred onto the AFM tip. A similar procedure was used to attach the drug particle to the AFM tip containing the epoxy. The particle-modified AFM tip was then kept at room temperature for 24 h to allow the complete curing of the epoxy. SEM images of the drug-modified cantilevers were obtained after the adhesion force measurements to verify the integrity and quality of the probe. The spring constant of the drug-modified cantilevers was determined using a module attached to the AFM and the MI Thermal K 1.02 software. Preparation and Characterization of the Drug Crystal Substrate. Salbutamol was first dissolved in ethanol to saturation. The solution was then transferred onto a cover glass previously treated with piranha solution (7:3 v/v H2SO4/H2O2). The system was kept inside a scaled Petri dish. The crystallization process of salbutamol was induced by the controlled evaporation of ethanol. Optical microscopy was used to observe the crystal morphology. The surface topography of the salbutamol crystal was examined by AFM under tapping mode, with a silicon cantilever (BS-Multi 75). Colloidal Probe Microscopy (CPM). The force of adhesion (Fad) between the salbutamol-modified cantilever and a smooth salbutamol crystal substrate was determined by CPM, at 298 K. A fluid cell was used to perform the experiments in liquid HPFP. The procedure adopted here is similar to that used to investigate the effect of other excipients on drug-drug interactions. FIG. 2a is the schematic diagram of a typical force curve obtained during the CPM measurements. The Fad is determined as the product of the spring constant (k) of the drug-modified AFM cantilever and the maximum cantilever deflection (x) during the retraction stage of the force measurement; […]; as schematically shown in FIG. 2a. Several contact points, randomly distributed on the crystal surfaces over a 9 μm×9 μm area, were selected for the measurements. At each contact point, 25 force-distance curves were measured. The tip was moved toward and away from the substrate in a range of 2000 nm and a sweep duration of 2 s. The histograms of the measured Fad were fit to a Gaussian distribution, from which an average Fad and deviation were obtained. The same drug probe was used throughout the measurements to guarantee a constant contact area. Great care was taken to guarantee the integrity of the drug probe. Since the solubility of salbutamol in HPFP is negligible, before each new adhesion force measurement, the drug probe and drug crystal substrate were thoroughly rinsed with HPFP, followed by an Fad test in pure HPFP. […] A second set of completely independent measurements (new probe and crystal substrate) were obtained to assess the reproducibility of the reported trend in Fad.

[2] = Solubility in propellant / solvent; assay type: physicochemical

Compound: CCO [Ethanol]
- Fad probe 1 ([1]; no surfactant, cosolvent ethanol 7% (v/v) alone, probe 1): 6.31 ± 0.47 nN
- Fad probe 2 ([1]; no surfactant, cosolvent ethanol 7% (v/v) alone): 5.01 ± 0.26 nN

Compound: CCCCCCCC/C=C\CCCCCCCC(=O)O [Oleic acid]
- Fad probe 1 ([1]; surfactant 1.0 mM with cosolvent ethanol 7% (v/v), probe 1): 1.54 ± 0.35 nN
- Fad probe 1 ([1]; surfactant 1.0 mM with cosolvent ethanol 7% (v/v), probe 1, listed as oleic acid): 1.54 nN
- Fad probe 2 ([1]; surfactant 1.0 mM with cosolvent ethanol 7% (v/v)): 1.64 ± 0.21 nN

Compound: CC(C)(C)NCC(O)c1ccc(O)c(CO)c1 (stereo not shown) [salbutamol]
- Solubility in HPFP ([2]; HPFP): negligible
- Solubility in ethanol ([2]; ethanol): appreciable solubility
